Reference: the supplement of paper PMC11061612

Key:
[1] = test system: SW982 (Other Solid Carcinomas); assay: Bliss excess, mean over the matrix (fraction); higher = more synergy
How it was run: (§1)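 Cell lines grown in DMEM/F12 or RPMI with 10% FBS were plated in 1536-well plates and held 24 hours at 37°C, 5% CO2 before 72 hours of exposure to two-drug dose matrices, with DMSO typically at 0.2%. CellTiter-Glo 2.0 luminescence gave viability, which was converted to inhibition. Vehicle wells were set to 0 and blank wells to 1. Combination Emax is the second-highest inhibition in the matrix, and Bliss excess is the observed combination effect minus the expected EA + EB − EA·EB, where EA and EB are the single-agent effects.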

[2] = test system: A4-Fuk (B-Lymphoblastic Leukemia); assay: as above
How it was run: as §1

[3] = test system: COLO-668 (Small Cell Lung Carcinoma); assay: as above
How it was run: as §1

COLO-679 (Melanoma) = assay: as above
How it was run: as §1

[4] = test system: HAL-01 (B-Lymphoblastic Leukemia); assay: as above
How it was run: as §1

[5] = test system: ME-180 (Cervical Carcinoma); assay: as above
How it was run: as §1

[6] = test system: SNU-387 (Hepatocellular Carcinoma); assay: as above
How it was run: as §1

[7] = test system: ML-2 (Acute Myeloid Leukemia); assay: as above
How it was run: as §1

[8] = test system: MV-4-11 (Acute Myeloid Leukemia); assay: as above
How it was run: as §1

[9] = test system: SK-LU-1 (Lung Adenocarcinoma); assay: combination Emax (second highest fraction inhibited in the dose matrix, 72 h); higher = more inhibition; extreme values may be limits of the assay
How it was run: as §1

[10] = test system: DU-145 (Prostate Carcinoma); assay: as above
How it was run: as §1

[11] = test system: HCC1500 (Breast Carcinoma); assay: as above
How it was run: as §1

Hey (Ovarian Carcinoma) = assay: as above
How it was run: as §1

[12] = test system: CADO-ES1 (Ewing's Sarcoma); assay: as above
How it was run: as §1

[13] = test system: KOPN-8 (B-Lymphoblastic Leukemia); assay: as above
How it was run: as §1

[14] = test system: NCI-H1092 (Small Cell Lung Carcinoma); assay: as above
How it was run: as §1

[15] = test system: ALL-SIL (T-Lymphoblastic Leukemia); assay: as above
How it was run: as §1

[16] = test system: NCI-H650 (Lung Adenocarcinoma); assay: as above
How it was run: as §1

EW-1 (Ewing's Sarcoma) = assay: as above
How it was run: as §1

[17] = test system: G-401 (Other Solid Carcinomas); assay: as above
How it was run: as §1
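Throughout, for Bliss excess, mean over the matrix: after 72 h of two-drug dosing.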

Compound	Bliss excess [1]	Bliss excess [2]	Bliss excess [3]	Bliss excess (COLO-679 (Melanoma))	Bliss excess [4]	Bliss excess [5]	Bliss excess [6]	Bliss excess [7]	Bliss excess [8]	combination Emax [9]	combination Emax [10]	combination Emax [11]	combination Emax (Hey (Ovarian Carcinoma))	combination Emax [12]	combination Emax [13]	combination Emax [14]	combination Emax [15]	combination Emax [16]	combination Emax (EW-1 (Ewing's Sarcoma))	combination Emax [17]
CN(CCO)CC[C@H](CSc1ccccc1)Nc1ccc(S(=O)(=O)NC(=O)c2ccc(N3CCC([C@@H](O)c4ccccc4-c4ccc(Cl)cc4)CC3)cc2)cc1S(=O)(=O)C(F)(F)F [AZD4320] + CC(=O)O[C@H]1C(=O)[C@@]2(C)[C@H]([C@H](OC(=O)c3ccccc3)[C@]3(O)C[C@H](OC(=O)[C@H](O)[C@@H](NC(=O)c4ccccc4)c4ccccc4)C(C)=C1C3(C)C)[C@]1(OC(C)=O)CO[C@@H]1C[C@@H]2O [Paclitaxel] (first compound max 1 µM, 7x7, partner max 3 µM)	0.0272	-0.0556	0.125	-0.0012	0.0634	0.139	0.0767	-0.0009	0.0055	0.741	0.818									
CN(CCO)CC[C@H](CSc1ccccc1)Nc1ccc(S(=O)(=O)NC(=O)c2ccc(N3CCC([C@@H](O)c4ccccc4-c4ccc(Cl)cc4)CC3)cc2)cc1S(=O)(=O)C(F)(F)F [AZD4320] + CCN(CCO)CCCOc1ccc2c(Nc3cc(CC(=O)Nc4cccc(F)c4)[nH]n3)ncnc2c1 [AZD2811] (first compound max 1 µM, 7x7, partner max 1 µM)	0.0447	0.0624	0.0302	0.0201	-0.0085	0.0343	-0.0127	0.0557	0.0064	0.281		0.997	0.254	0.668	0.963	0.866	1	0.157	0.863	0.517
CN(CCO)CC[C@H](CSc1ccccc1)Nc1ccc(S(=O)(=O)NC(=O)c2ccc(N3CCC([C@@H](O)c4ccccc4-c4ccc(Cl)cc4)CC3)cc2)cc1S(=O)(=O)C(F)(F)F [AZD4320] + C[C@@H](Nc1cc(F)cc(F)c1)c1cc(C(=O)N(C)C)cc2c(=O)cc(N3CCOCC3)oc12 [AZD8186] (first compound max 1 µM, 7x7, partner max 3 µM)	0.0078	0.0025	0.0083	-0.0469	0.0337	-0.0137	0.0168	0.0182	0.0114		0.227	0.992	0.373	0.919	1	0.938	1	0.474	0.924	0.661
CN(CCO)CC[C@H](CSc1ccccc1)Nc1ccc(S(=O)(=O)NC(=O)c2ccc(N3CCC([C@@H](O)c4ccccc4-c4ccc(Cl)cc4)CC3)cc2)cc1S(=O)(=O)C(F)(F)F [AZD4320] + Cn1cnc2c(F)c(Nc3ccc(Br)cc3Cl)c(C(=O)NOCCO)cc21 [Selumetinib] (first compound max 1 µM, 7x7, partner max 3 µM)	-0.0042	0.073	0.114	0.0716	-0.0053	0.0771	0.0149	0.0723	0.0513		0.255	0.998	0.533	0.886	1	0.956	1	0.656	0.921	0.543
CN(CCO)CC[C@H](CSc1ccccc1)Nc1ccc(S(=O)(=O)NC(=O)c2ccc(N3CCC([C@@H](O)c4ccccc4-c4ccc(Cl)cc4)CC3)cc2)cc1S(=O)(=O)C(F)(F)F [AZD4320] + Nc1ccn([C@@H]2O[C@H](CO)[C@@H](O)C2(F)F)c(=O)n1 [Gemcitabine] (first compound max 1 µM, 7x7, partner max 0.3 µM)	0.0339	-0.0912	0.0417	-0.0226	0.0448	-0.0249	-0.0646	0.0042	-0.023	0.248	0.485									
Cc1cc2ncnn2cc1Nc1ncc2c(n1)n(C1CCOCC1)c(=O)n2C [AZD7648] + C=CCn1c(=O)c2cnc(Nc3ccc(N4CCN(C)CC4)cc3)nc2n1-c1cccc(C(C)(C)O)n1 [AZD1775] (first compound max 10 µM, partner max 1 µM)	-0.0111	-0.0655	-0.0151	-0.0446	0.183	-0.0378	-0.123	-0.0199	0.053		0.289	0.424	0.613	0.45	0.903	0.382	0.867	0.288	0.832	0.674
Cc1cc2ncnn2cc1Nc1ncc2c(n1)n(C1CCOCC1)c(=O)n2C [AZD7648] + CCN(CCO)CCCOc1ccc2c(Nc3cc(CC(=O)Nc4cccc(F)c4)[nH]n3)ncnc2c1 [AZD2811] (first compound max 10 µM, 7x7, partner max 1 µM)	-0.0569	0.0759	0.0084	-0.0126	0.0199	-0.0485	-0.0345	-0.116	-0.0538		0.209	0.445	0.41	0.377	0.58	0.182	0.97	0.14	0.312	0.51
Cc1cc2ncnn2cc1Nc1ncc2c(n1)n(C1CCOCC1)c(=O)n2C [AZD7648] + CN(C)CCCOc1ccc(-c2ccc3ncc4c(c3c2)n(C2CCOCC2)c(=O)n4C)cn1 [AZD0156] (first compound max 10 µM, 7x7, partner max 1 µM)	-0.0471	0.0001	-0.0252	-0.0259	-0.0058	-0.0167	-0.0188	-0.0154	0.0291		0.167	0.299	0.32	0.38	0.311	0.0818	0.321	0.186	0.34	0.329
Cc1cc2ncnn2cc1Nc1ncc2c(n1)n(C1CCOCC1)c(=O)n2C [AZD7648] + COc1cc([C@@H]2c3cc4c(cc3[C@@H](O[C@@H]3O[C@@H]5CO[C@@H](C)O[C@H]5[C@H](O)[C@H]3O)[C@H]3COC(=O)[C@H]23)OCO4)cc(OC)c1O [Etoposide] (first compound max 10 µM, 7x7, partner max 10 µM)	0.142	-0.0187	0.0429	-0.0745	0.0962	0.12	-0.0126	0.125	0.115	0.47	0.441									
Cc1cc2ncnn2cc1Nc1ncc2c(n1)n(C1CCOCC1)c(=O)n2C [AZD7648] + C[C@@H]1COCCN1C2=NC(=NC(=C2)C3(CC3)[S@](=N)(=O)C)C4=C5C=CNC5=NC=C4 [AZD6738] (first compound max 10 µM, 7x7, partner max 10 µM)	-0.096	-0.0768	0.0093	-0.0486	-0.0048	-0.002	-0.0236	-0.0817	-0.0469		0.478	0.383	0.689	0.824	0.891	0.302	0.925	0.138	0.871	0.379
COc1cc2c(cc1OCCCCCOc1cc3c(cc1OC)C(=O)N1C=C(C)C[C@H]1C=N3)N=C[C@@H]1CC(C)=CN1C2=O [SG3199] + O=C(c1cc(Cc2n[nH]c(=O)c3ccccc23)ccc1F)N1CCN(C(=O)C2CC2)CC1 [Olaparib] (first compound max 0.001 µM, 7x7, partner max 10 µM)	-0.0195	-0.0267	-0.0003	-0.0285	0.0067	-0.0495	-0.0533	0.0179	0.0066		0.104	0.125	0.196	0.325	0.719	0.152	0.337	0.136	0.636	0.32
N#Cc1cnc(Nc2cc(NC[C@H]3CNCCO3)c(C(F)(F)F)cn2)cn1 [SRA737] + C=CCn1c(=O)c2cnc(Nc3ccc(N4CCN(C)CC4)cc3)nc2n1-c1cccc(C(C)(C)O)n1 [AZD1775] (first compound max 10 µM, partner max 1 µM)	0.0316	0.0277	0.151	-0.107	0.0645	-0.0149	0.03	0.0592	0.0409	0.442	0.263									
N#Cc1cnc(Nc2cc(NC[C@H]3CNCCO3)c(C(F)(F)F)cn2)cn1 [SRA737] + CCc1c2c(nc3ccc(O)cc13)-c1cc3c(c(=O)n1C2)COC(=O)[C@]3(O)CC [SN-38] (first compound max 10 µM, 7x7, partner max 0.3 µM)	-0.0929	-0.0229	-0.0688	-0.13	-0.0125	0.0247	0.0321	-0.0549	-0.0337	0.639	0.628									
N#Cc1cnc(Nc2cc(NC[C@H]3CNCCO3)c(C(F)(F)F)cn2)cn1 [SRA737] + Nc1ccn([C@@H]2O[C@H](CO)[C@@H](O)C2(F)F)c(=O)n1 [Gemcitabine] (first compound max 10 µM, 7x7, partner max 0.3 µM)	0.0238	0.0278	-0.0355	-0.0808	0.0046		0.102	0.061	-0.0314	0.389	0.544									
N#Cc1cnc(Nc2cc(NC[C@H]3CNCCO3)c(C(F)(F)F)cn2)cn1 [SRA737] + O=c1[nH]cc(F)c(=O)[nH]1 [5-Fluorouracil] (first compound max 10 µM, 7x7, partner max 20 µM)	0.0157	0.0129	0.0106	-0.148	-0.0463	0.0272	0.0472	-0.0476	0.004	0.369	0.439									
